Reference: ChEMBL document CHEMBL3826967, “Small molecule non-peptide inhibitors of botulinum neurotoxin serotype E: Structure-activity relationship and a pharmacophore model” (Bioorg Med Chem, 2016)

Legend:
[1] = target: T1, Botulinum neurotoxin type E (Clostridium botulinum) (UniProt Q00496); assay: Inhibition of endopeptidase activity of Clostridium botulinum BoNT/E light chain using SNAP-25 as substrate at 20 uM after 15 mins by HPLC analysis
T1 sequence (whole entry): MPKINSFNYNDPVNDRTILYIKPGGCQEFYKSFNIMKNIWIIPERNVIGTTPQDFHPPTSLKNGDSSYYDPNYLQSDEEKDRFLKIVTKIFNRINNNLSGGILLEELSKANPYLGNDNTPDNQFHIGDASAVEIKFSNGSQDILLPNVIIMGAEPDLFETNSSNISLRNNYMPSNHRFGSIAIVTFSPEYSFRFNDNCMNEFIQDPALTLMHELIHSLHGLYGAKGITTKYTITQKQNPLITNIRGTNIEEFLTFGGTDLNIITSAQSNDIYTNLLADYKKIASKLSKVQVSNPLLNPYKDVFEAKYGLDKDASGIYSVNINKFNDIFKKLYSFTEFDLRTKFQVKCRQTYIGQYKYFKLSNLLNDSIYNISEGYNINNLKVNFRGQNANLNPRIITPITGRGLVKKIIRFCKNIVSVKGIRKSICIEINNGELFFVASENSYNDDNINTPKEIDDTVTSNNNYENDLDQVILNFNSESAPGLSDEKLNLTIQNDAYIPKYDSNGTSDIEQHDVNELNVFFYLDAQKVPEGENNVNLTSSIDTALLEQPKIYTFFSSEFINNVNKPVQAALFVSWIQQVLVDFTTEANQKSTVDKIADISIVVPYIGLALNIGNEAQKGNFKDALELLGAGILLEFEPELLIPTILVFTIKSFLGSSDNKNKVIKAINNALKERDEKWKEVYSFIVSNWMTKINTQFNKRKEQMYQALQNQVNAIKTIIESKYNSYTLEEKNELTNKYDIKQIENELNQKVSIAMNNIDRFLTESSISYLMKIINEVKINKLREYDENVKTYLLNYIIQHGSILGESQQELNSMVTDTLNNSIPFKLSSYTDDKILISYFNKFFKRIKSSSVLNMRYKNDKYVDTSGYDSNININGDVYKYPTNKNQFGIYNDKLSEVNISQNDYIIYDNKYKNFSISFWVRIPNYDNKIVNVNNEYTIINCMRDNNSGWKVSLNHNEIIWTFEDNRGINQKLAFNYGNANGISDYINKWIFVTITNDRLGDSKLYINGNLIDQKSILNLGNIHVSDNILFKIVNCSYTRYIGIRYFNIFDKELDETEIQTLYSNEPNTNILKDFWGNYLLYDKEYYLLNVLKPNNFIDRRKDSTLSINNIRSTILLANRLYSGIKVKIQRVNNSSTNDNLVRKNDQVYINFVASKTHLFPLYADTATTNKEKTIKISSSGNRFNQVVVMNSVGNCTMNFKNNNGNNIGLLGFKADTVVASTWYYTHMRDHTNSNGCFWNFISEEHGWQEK

[2] = target: T2, Botulinum neurotoxin type E (Clostridium botulinum, UniProt Q00496); assay: (§1) Inhibition of endopeptidase activity of Clostridium botulinum BoNT/E light chain using SNAP-25 as substrate after 15 mins by HPLC analysis
T2 sequence (Q00496 whole entry): T1 sequence (whole entry)

[3] = target: T1, Botulinum neurotoxin type E (Clostridium botulinum); assay: as §1
[4] = target: T2, Botulinum neurotoxin type E; assay: Inhibition of protease activity of Clostridium botulinum BoNT/E light chain using SNAP-25 as substrate after 15 mins by Dixon plot analysis

Q: O=C(O)c1ccccc1-c1ccccc1C(=O)Nc1ccc2c(c1)Cc1ccccc1-2 was tested. Which inhibition [1] did it give?
A: Its inhibition is 37.2%.

Q: O=C(O)c1ccccc1C(=O)c1ccc(Cl)cc1 was tested. Which inhibition [1] did it give?
A: The inhibition was 0%.

Q: Which results are given for O=c1c2cc(Cl)ccc2c2ccc(Cl)cc2c(=O)n1-c1ccc2c(c1)Cc1cc(Cl)cc(Cl)c1-2?
A: inhibition [1]: 68.9%; IC50 [2]: 9800 nM

Q: With O=C(O)c1ccccc1C(=O)c1cc(Cl)cc(Cl)c1O as the molecule, how does the inhibition [1] read?
A: The inhibition was 19.2%.

Q: For O=C(O)c1ccccc1C(=O)c1ccc2c(c1)CCC2, which inhibition [1] is on record?
A: Its inhibition is 16.3%.

Q: How did the inhibition [1] turn out when O=c1c2cc([N+](=O)[O-])ccc2c2ccc([N+](=O)[O-])cc2c(=O)n1-c1ccc2c(c1)Cc1ccccc1-2 was run?
A: Its inhibition is 24.7%.

Q: Which results are given for O=C(O)c1cc(Cl)ccc1-c1ccc(Cl)cc1C(=O)Nc1ccc2c(c1)Cc1cc(Cl)cc(Cl)c1-2?
A: inhibition [1]: 79.1%; inhibition [3]: Dose-dependent effect; IC50 [2]: 3000 nM

Q: With O=C(O)c1ccccc1-c1ccccc1C(=O)Nc1ccc2c(c1)Cc1cc(F)ccc1-2 as the molecule, how does the inhibition [1] read?
A: The inhibition was 47.6%.

Q: For O=C(O)c1ccccc1C(=O)Nc1ccc2c(c1)C(=O)c1ccccc1-2, which inhibition [1] is on record?
A: Its inhibition is 14.8%.

Q: For O=C(O)c1ccc(C(=O)c2ccccc2C(=O)O)cc1, which inhibition [1] is on record?
A: The inhibition was 13.7%.

Q: How did the inhibition [1] turn out when O=C(O)c1ccccc1-c1ccccc1C(=O)Nc1ccc2c(c1)C(=O)c1ccccc1-2 was run?
A: Its inhibition is 20.2%.

Q: With CC(=O)Nc1cc2c(cc1N)-c1ccccc1C2 as the molecule, how does the inhibition [1] read?
A: The inhibition was 13.7%.

Q: With Cc1cc2c(cc1C(=O)c1ccccc1C(=O)O)CCCC2 as the molecule, how does the inhibition [1] read?
A: Its inhibition is 24.8%.

Q: Which inhibition [1] does the source give for O=C(O)c1ccccc1C(=O)c1ccc2c3c(cccc13)CC2 here?
A: Its inhibition is 11.5%.

Q: For O=C(O)c1cccc(F)c1C(=O)c1ccc2ccccc2c1, which inhibition [1] is on record?
A: Its inhibition is 43.9%.

Q: With O=C(O)/C=C/C(=O)Nc1ccc2c(c1)Cc1cc([N+](=O)[O-])ccc1-2 as the molecule, how does the inhibition [1] read?
A: Its inhibition is 19.5%.

Q: For O=C(Nc1ccccc1)c1cc2cc3ccccc3cc2cc1O, which inhibition [1] is on record?
A: Its inhibition is 70.1%.

Q: And the IC50 [2]?
A: The IC50 was 2400 nM.

Q: With O=C(O)c1cc(Cl)ccc1-c1ccc(Cl)cc1C(=O)Nc1ccc2c(c1)Cc1ccccc1-2 as the molecule, how does the inhibition [1] read?
A: Its inhibition is 88.3%.

Q: What about the IC50 [2] of the same molecule?
A: Its IC50 is 3200 nM.

Q: Which inhibition [1] does the source give for COc1ccc2c(c1)Cc1cc(NC(=O)c3ccccc3-c3ccccc3C(=O)O)ccc1-2 here?
A: The inhibition was 20.9%.

Q: Which inhibition [1] does the source give for O=C(O)C1CCCCC1C(=O)Nc1ccc2c(c1)Cc1ccccc1-2 (centres undefined) here?
A: The inhibition was 12%.

Q: O=C1c2ccccc2-c2cc(Br)c(NC(=O)C3CCCCC3C(=O)O)cc21 (centres undefined) was tested. Which inhibition [1] did it give?
A: The inhibition was 19.3%.

Q: For O=C(O)c1ccccc1-c1ccccc1C(=O)Nc1ccc2c(c1)C(O)c1ccccc1-2 (centres undefined), which inhibition [1] is on record?
A: Its inhibition is 20%.

Q: With O=c1c2cc(Cl)ccc2c2ccc(Cl)cc2c(=O)n1-c1ccc2c(c1)Cc1ccccc1-2 as the molecule, how does the inhibition [1] read?
A: The inhibition was 48%.

Q: With c1ccc2c(c1)Cc1ccccc1-2 as the molecule, how does the inhibition [1] read?
A: Its inhibition is 17.3%.

Q: Which inhibition [1] does the source give for O=C1c2ccccc2-c2ccc(NC(=O)C3CCCCC3C(=O)O)cc21 (centres undefined) here?
A: The inhibition was 18.3%.

Q: For Cc1cccc(C)c1NC(=S)NNC(=O)c1ccncc1, which inhibition [1] is on record?
A: Its inhibition is 28%.

Q: How did the inhibition [1] turn out when O=C(O)c1ccccc1C(=O)Nc1cc2c(cc1Br)-c1ccccc1C2=O was run?
A: The inhibition was 26.2%.

Q: With O=C(O)c1ccccc1C(=O)c1ccc(O)cc1O as the molecule, how does the inhibition [1] read?
A: Its inhibition is 14.7%.

Q: Which inhibition [1] does the source give for O=C(O)c1ccccc1C(=O)c1ccccc1 here?
A: The inhibition was 15.9%.

Q: For O=C(O)c1ccccc1C(=O)CCC(=O)c1ccccc1C(=O)O, which inhibition [1] is on record?
A: Its inhibition is 21.2%.

Q: With O=C(O)c1ccccc1C(=O)c1ccc(-c2ccccc2)cc1 as the molecule, how does the inhibition [1] read?
A: The inhibition was 37.8%.

Q: With CNc1ccc(C(=O)c2ccccc2C(=O)O)cc1[N+](=O)[O-] as the molecule, how does the inhibition [1] read?
A: Its inhibition is 14.1%.

Q: How did the inhibition [1] turn out when O=C(O)c1ccccc1C(=O)c1ccc2oc(O)nc2c1 was run?
A: Its inhibition is 35%.

Q: Which inhibition [1] does the source give for O=C(O)c1cc([N+](=O)[O-])ccc1-c1ccc([N+](=O)[O-])cc1C(=O)Nc1ccc2c(c1)Cc1ccccc1-2 here?
A: The inhibition was 82%.

Q: And the IC50 [2]?
A: Its IC50 is 2700 nM.

Q: Which inhibition [1] does the source give for O=C(Nc1ccc2c(c1)C(=O)c1ccccc1-2)c1ccccc1 here?
A: The inhibition was 12.7%.

Q: How did the inhibition [1] turn out when O=C(NNC(=S)Nc1ccccc1Cl)c1ccncc1 was run?
A: The inhibition was 19%.

Q: With O=C(O)c1ccccc1C(=O)c1ccc2c(c1)Cc1ccccc1-2 as the molecule, how does the inhibition [1] read?
A: The inhibition was 80.1%.

Q: And the Ki [4]?
A: The Ki was 1290 nM.
